Broadly, the EC50 is the midpoint of the concentration-response curve. As usually defined, the Emax is the maximal effect, on the per cent scale that the assay sets.

This is an account of results in patent US20200131180A1, “POSITIVE ALLOSTERIC MODULATORS OF THE MUSCARINIC ACETYLCHOLINE RECEPTOR M1” (Vanderbilt University, priority 2018, published 2020).

In this experiment the target is T1, human mAChR M1 (Homo sapiens, UniProt P11229).
T1 sequence (P11229 1-460): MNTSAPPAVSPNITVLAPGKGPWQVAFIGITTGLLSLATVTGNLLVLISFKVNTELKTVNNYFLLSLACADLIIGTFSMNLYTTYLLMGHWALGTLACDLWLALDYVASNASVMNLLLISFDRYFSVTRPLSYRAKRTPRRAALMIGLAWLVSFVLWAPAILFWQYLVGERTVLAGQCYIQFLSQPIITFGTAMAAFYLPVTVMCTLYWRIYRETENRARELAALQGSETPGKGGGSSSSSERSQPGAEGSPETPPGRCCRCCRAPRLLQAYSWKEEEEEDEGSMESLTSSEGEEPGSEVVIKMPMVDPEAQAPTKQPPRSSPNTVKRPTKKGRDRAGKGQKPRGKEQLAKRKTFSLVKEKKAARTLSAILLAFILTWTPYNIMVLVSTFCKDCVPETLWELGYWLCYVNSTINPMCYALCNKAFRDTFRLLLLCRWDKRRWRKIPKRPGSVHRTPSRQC
Kind of experiment: mAChR M1 cell-based functional assay (calcium mobilization, PAM activity). The settings on record: CHO-K1 cells expressing hM1, calcium flux (Fluo-4); for EC50: concentration-dependent increase in the EC20 acetylcholine response; for Emax: potentiation of EC20 acetylcholine response. An excerpt:
Chinese hamster ovary (CHO-K1) cells stably expressing rat (r)M1 were purchased from the American Type Culture Collection and cultured according to their indicated protocol. CHO cells stably expressing human (h)M2, hM3, and hM5 were described previously (Levey, et al., 1991); hM1 and hM4 cDNAs were purchased from Missouri S&T cDNA Resource; rM4 cDNA was provided by T. I. Bonner (National Institutes of Health, Bethesda, Md.). rM2 and rM3 were cloned from a rat brain cDNA library and sequence verified. hM1, rM2, rM3, hM4, and rM4 cDNAs were used to stably transfect CHO-K1 cells purchased from the American Type Culture Collection using Lipofectamine 2000. To make stable rM2, hM2, rM3, hM4, and rM4 cell lines for use in calcium mobilization assays, these cells also were stably transfected with a chimeric G-protein (Gqi5) (provided by B. R. Conklin, University of California, San Francisco) using Lipofectamine 2000. rM1, hM1, rM3, hM3, rM5, and hM5 cells were grown in Ham's F-12 medium containing 10% heat-inactivated fetal bovine serum (FBS), 20 mM HEPES, and 50 μg/mL G418 sulfate. rM2-Gqi5, hM2-Gqi5, and hM4-Gqi5 cells were grown in the same medium also containing 500 μg/mL Hygromycin B. Stable rM4-Gqi5 cells were grown in DMEM containing 10% heat-inactivated FBS, 20 mM HEPES, 400 μg/mL G418 sulfate, and 500 μg/mL Hygromycin B.
For high throughput measurement of agonist-evoked increases in intracellular calcium, CHO-K1 cells stably expressing muscarinic receptors were plated in growth medium lacking G418 and hygromycin at 15,000 cells/20 μL/well in Greiner 384-well black-walled, tissue culture (TC)-treated, clear-bottom plates (VWR). Cells were incubated overnight at 37° C. and 5% CO2. The next day, cells were washed using an ELX 405 (BioTek) with four washes (80 μL) of assay buffer then aspirated to 20 μL. Next, 20 μL of 16 μM Fluo-4/acetoxymethyl ester (Invitrogen, Carlsbad, Calif.) prepared as a 2.3 mM stock in DMSO and mixed in a 1:1 ratio with 10% (w/v) Pluronic F-127 and diluted in assay buffer was added to the wells and the cell plates were incubated for 50 min at 37° C. and 5% CO2. Dye was removed by washing with the ELX 405 (four 80 μL washes of assay buffer) then aspirated to 20 μL. Compound master plates were formatted in an 11 point CRC format (1:3 dilutions) in 100% DMSO with a starting concentration of 10 mM using the BRAVO liquid handler (Agilent). Test compound CRCs were then transferred to daughter plates (240 nL) using the Echo acoustic plate reformatter (Labcyte, Sunnyvale, Calif.) and then diluted into assay buffer (40 μL) to a 2× stock using a Thermo Fisher Combi (Thermo Fisher Scientific, Waltham, Mass.).
Calcium flux was measured using the Functional Drug Screening System (FDSS) 6000 (Hamamatsu Corporation, Tokyo, Japan) as an increase in the fluorescent static ratio. Compounds were applied to cells (20 μL, 2×) using the automated system of the FDSS 6000 at 4 s into the 300 s protocol and the data were collected at 1 Hz. At 144 s into the 300s protocol, 10 μL of an EC20 concentration of the muscarinic receptor agonist acetylcholine was added (5×), followed by the addition of 12 μL an EC80 concentration of acetylcholine at the 230 s time point (5×). Agonist activity was analyzed as a concentration-dependent increase in calcium mobilization upon compound addition. Emax values for agonist activity are expressed relative to the maximum for acetylcholine. Positive allosteric modulator activity was analyzed as a concentration-dependent increase in the EC20 acetylcholine response. Antagonist activity was analyzed as a concentration-dependent decrease in the EC80 acetylcholine response. Concentration-response curves were generated using a four-parameter logistical equation in XLfit curve fitting software (IDBS, Bridgewater, N.J.) for Excel (Microsoft, Redmond, Wash.) or Prism (GraphPad Software, Inc., San Diego, Calif.). […]
On the technique in general: Calcium flux is commonly read through the fluorescence of an indicator in the cells.

SMILES strings stand for the structures.

As to `Cn1ccc(-c2ccc(Cc3cc(C(=O)N[C@@H]4CCOC[C@H]4O)c4nccn4c3)cc2)n1` [compound 5, N-[(3S,4R)-3-hydroxytetrahydropyran-4-yl]-6-[[4-(1-methylpyrazol-3-yl)phenyl]methyl]imidazo[1,2-a]pyridine-8-carboxamide], the EC50 came out at 384 nM and the Emax is 78%.
For `Cn1cc(-c2ccc(Cc3cc(C(=O)N[C@H]4CCOC[C@@H]4O)c4ncnn4c3)cc2)cn1` [compound 28, N-[(3R,4S)-3-hydroxytetrahydropyran-4-yl]-6-[[4-(1-methylpyrazol-4-yl)phenyl]methyl]-[1,2,4]triazolo[1,5-a]pyridine-8-carboxamide], in that order: 1120 nM and 85%.
With `O=C(NC1CCOCC1)c1cc(Cc2ccc(-n3cccn3)cc2)cc2ncnn12` [compound 67, 7-(4-(1H-pyrazol-1-yl)benzyl)-N-(tetrahydro-2H-pyran-4-yl)-[1,2,4]triazolo[1,5-a]pyridine-5-carboxamide], the Emax came out at 46%.
Regarding `Cn1ccc(-c2cc(F)c(Cc3cc(C(=O)N[C@H]4CCOC[C@@H]4O)c4ncnn4c3)c(F)c2)n1` [compound 41, 6-[[2,6-difluoro-4-(1-methylpyrazol-3-yl)phenyl]methyl]-N-[(3R,4S)-3-hydroxytetrahydropyran-4-yl]-[1,2,4]triazolo[1,5-a]pyridine-8-carboxamide], the EC50 was 1200 nM and the Emax stood at 76%.
Take `Cn1ccc(-c2cc(F)c(Cc3cc(C(=O)N[C@H]4CCCC[C@@H]4O)c4ncnn4c3)c(F)c2)n1` [compound 42, 6-[[2,6-difluoro-4-(1-methylpyrazol-3-yl)phenyl]methyl]-N-[(1S,2S)-2-hydroxycyclohexyl]-[1,2,4]triazolo[1,5-a]pyridine-8-carboxamide]: the EC50 stood at 936 nM and the Emax is 83%.
The matching figures for `O=C(N[C@H]1CCCCC[C@@H]1O)c1cc(Cc2ccc(-n3cccn3)nc2)cn2ccnc12` [compound 61, N-[(1S,2S)-2-hydroxycycloheptyl]-6-[(6-pyrazol-1-yl-3-pyridyl)methyl]imidazo[1,2-a]pyridine-8-carboxamide]: 2540 nM and 52%.
For `Cn1ccc(-c2ccc(Cc3cc(C(=O)NC4CCOCC4)c4ncnn4c3)cc2)n1` [compound 8, 6-[[4-(1-methylpyrazol-3-yl)phenyl]methyl]-N-tetrahydropyran-4-yl-[1,2,4]triazolo[1,5-a]pyridine-8-carboxamide], the maximal effect (Emax) was 53%.
Consider `Cn1ccc(-c2ccc(Cc3cc(C(=O)N[C@H]4CCOC[C@@H]4O)c4nccn4c3)c(F)c2)n1` [compound 53, 6-[[2-fluoro-4-(1-methylpyrazol-3-yl)phenyl]methyl]-N-[(3R,4S)-3-hydroxytetrahydropyran-4-yl]imidazo[1,2-a]pyridine-8-carboxamide], for which the EC50 is 249 nM and the maximal response (Emax) was 66%.
For `Cn1ccc(-c2ccc(Cc3cc(C(=O)N[C@H]4CCC[C@@H]4O)c4ncnn4c3)cc2)n1` [compound 11, N-[(1S,2S)-2-hydroxycyclopentyl]-6-[[4-(1-methylpyrazol-3-yl)phenyl]methyl]-[1,2,4]triazolo[1,5-a]pyridine-8-carboxamide], in that order: 2540 nM and 88%.
For `Cn1cc(-c2ccc(Cc3cc(C(=O)N[C@H]4CCCC[C@@H]4O)c4ncnn4c3)c(F)c2)cn1` [compound 48, 6-[[2-fluoro-4-(1-methylpyrazol-4-yl)phenyl]methyl]-N-[(1S,2S)-2-hydroxycyclohexyl]-[1,2,4]triazolo[1,5-a]pyridine-8-carboxamide], in that order: 229 nM and 76%.
As for `Cn1ccc(-c2ccc(Cc3cc(C(=O)N[C@H]4CCOC[C@@H]4O)c4nccn4c3)cn2)n1` [compound 26, N-[(3R,4S)-3-hydroxytetrahydropyran-4-yl]-6-[[6-(1-methylpyrazol-3-yl)-3-pyridyl]methyl]imidazo[1,2-a]pyridine-8-carboxamide], the EC50 stood at 4350 nM and the Emax was determined as 79%.
For `Cn1ccc(-c2ccc(Cc3cc(C(=O)N[C@H]4CCOC[C@@H]4O)c4ncnn4c3)cc2)n1` [compound 6, N-[(3R,4S)-3-hydroxytetrahydropyran-4-yl]-6-[[4-(1-methylpyrazol-3-yl)phenyl]methyl]-[1,2,4]triazolo[1,5-a]pyridine-8-carboxamide], in that order: 790 nM and 85%.
The matching figures for `Cc1cn2cc(Cc3ccc(-c4ccn(C)n4)cc3)cc(C(=O)N[C@H]3CCOC[C@@H]3O)c2n1` [compound 21, N-[(3R,4S)-3-hydroxytetrahydropyran-4-yl]-2-methyl-6-[[4-(1-methylpyrazol-3-yl)phenyl]methyl]imidazo[1,2-a]pyridine-8-carboxamide]: 2240 nM and 43%.
As to `Cn1cc(-c2cc(F)c(Cc3cc(C(=O)N[C@H]4CCCC[C@@H]4O)c4nccn4c3)c(F)c2)cn1` [compound 40, 6-[[2,6-difluoro-4-(1-methylpyrazol-4-yl)phenyl]methyl]-N-[(1S,2S)-2-hydroxycyclohexyl]imidazo[1,2-a]pyridine-8-carboxamide], the EC50 was 751 nM and the Emax was found to be 58%.
For `Cc1nc(-c2ccc(Cc3cc(C(=O)NC4CCOCC4)c4ncnn4c3)cc2)co1` [compound 35, 6-[[4-(2-methyloxazol-4-yl)phenyl]methyl]-N-tetrahydropyran-4-yl-[1,2,4]triazolo[1,5-a]pyridine-8-carboxamide], in that order: 9360 nM and 31%.
Consider `O=C(NC1CCOCC1)c1cc(Cc2ccc(-n3cccn3)cc2)cn2ncnc12` [compound 36, 6-[(4-pyrazol-1-ylphenyl)methyl]-N-tetrahydropyran-4-yl-[1,2,4]triazolo[1,5-a]pyridine-8-carboxamide], for which the maximal effect (Emax) turned out to be 47%.
On to `Cn1ccc(-c2ccc(Cc3cc(C(=O)N[C@H]4CCCC[C@@H]4O)c4nccn4c3)cn2)n1` [compound 25, N-[(1S,2S)-2-hydroxycyclohexyl]-6-[[6-(1-methylpyrazol-3-yl)-3-pyridyl]methyl]imidazo[1,2-a]pyridine-8-carboxamide], for which the half-maximal effective concentration (EC50) came out at 904 nM and the Emax amounted to 83%.
Take `Cn1cc(-c2ccc(Cc3cc(C(=O)N[C@H]4CCOC[C@@H]4O)c4ncnn4c3)c(F)c2)cn1` [compound 47, 6-[[2-fluoro-4-(1-methylpyrazol-4-yl)phenyl]methyl]-N-[(3R,4S)-3-hydroxytetrahydropyran-4-yl]-[1,2,4]triazolo[1,5-a]pyridine-8-carboxamide]: the concentration giving a half-maximal response (EC50) amounted to 404 nM and the Emax is 77%.
